From ChEMBL document CHEMBL5257089, “Gamabufotalin Induces Apoptosis and Cytoprotective Autophagy through the mTOR Signaling Pathway in Hepatocellular Carcinoma” (J Nat Prod, 2023)
pIC50: −log10 of the molar value. Active and inactive are the calls of the source. The calls are words filed in the database; no cut-off is given here.

Columns and labels:
Hep 3B2 [1] = experiment: Induction of apoptosis in human Hep3B cells assessed as viable cells at 10 nM incubated for 48 hrs by Annexin V-FITC/PI staining based flow cytometry method (reference value: 94.0%); format: functional; details: read-out: Activity
Hep 3B2 [2] = experiment: Induction of apoptosis in human Hep3B cells assessed as necrotic cells at 10 nM incubated for 48 hrs by Annexin V-FITC/PI staining based flow cytometry method (reference value: 1.2%); format: functional
Hep 3B2 [3] = experiment: Induction of apoptosis in human Hep3B cells assessed as increase in cleaved PARP level at 10 nM incubated for 48 hrs in presence of gamabufotalin by immunoblot analysis; format: functional, cell-based
Hep 3B2 [4] = experiment: Induction of apoptosis in human Hep3B cells assessed as increase in bax level at 10 nM incubated for 48 hrs in presence of gamabufotalin by immunoblot analysis; format: functional, cell-based
Huh-7 [5] = experiment: Induction of apoptosis in human Huh-7 cells assessed as increase in bax level at 10 nM incubated for 48 hrs in presence of gamabufotalin by immunoblot analysis; format: functional, cell-based
Huh-7 [6] = experiment: Induction of autophagic flux in human Huh-7 cells harbouring mCherry-egfp-LC3 assessed as reduction in number of red puncta ratio at 10 nM incubated for 15 mins in presence of gamabufotalin by laser scanning confocal microscopic analysis; format: functional, cell-based
Hep 3B2 [7] = experiment: Antiproliferative activity against human Hep3B cells assessed as cell viability incubated for 24 hrs by CCK-8; format: functional, cell-based
Huh-7 [8] = experiment: Antiproliferative activity against human Huh-7 cells assessed as cell viability incubated for 24 hrs by CCK-8; format: functional, cell-based; details: Huh-7, 24 h
Hep 3B2 [9] = experiment: Induction of apoptosis in human Hep3B cells assessed as viable cells at 25 nM incubated for 48 hrs by Annexin V-FITC/PI staining based flow cytometry method (reference value: 93.3%); format: functional; details: read-out: Activity
Hep 3B2 [10] = experiment: Induction of apoptosis in human Hep3B cells assessed as early apoptotic cells at 20 nM incubated for 48 hrs by Annexin V-FITC/PI staining based flow cytometry method (reference value: 3.9%); format: functional
Hep 3B2 [11] = experiment: Induction of apoptosis in human Hep3B cells assessed as late apoptotic cells at 25 nM incubated for 48 hrs by Annexin V-FITC/PI staining based flow cytometry method (reference value: 2.6%); format: functional
Huh-7 [12] = experiment: Induction of apoptosis in human Huh-7 cells assessed as late apoptotic cells at 15 nM incubated for 48 hrs by Annexin V-FITC/PI staining based flow cytometry method (reference value: 2.2%); format: functional
Huh-7 [13] = experiment: Induction of apoptosis in human Huh-7 cells assessed as late apoptotic cells at 25 nM incubated for 48 hrs by Annexin V-FITC/PI staining based flow cytometry method (reference value: 2.2%); format: functional
Hep 3B2 [14] = experiment: Induction of apoptosis in human Hep3B cells assessed as […] expression at upto 25 nM incubated for 48 hrs by Western blot analysis; format: functional, cell-based
Hep 3B2 [15] = experiment: Induction of apoptosis in human Hep3B cells assessed as necrotic cells at 25 nM measured after 48 hrs by annexin V-FITC/Propidium iodide staining based flow cytometric analysis (reference value: 0.3%); format: functional
Hep 3B2 [16] = experiment: Induction of apoptosis in human Hep3B cells assessed as late apoptotic cells at 25 nM measured after 48 hrs in presence of Z-VAD-FMK by annexin V-FITC/Propidium iodide staining based flow cytometric analysis (reference value: 2.4%); format: functional
Huh-7 [17] = experiment: Induction of apoptosis in human Huh-7 cells assessed as early apoptotic cells at 25 nM measured after 48 hrs by annexin V-FITC/Propidium iodide staining based flow cytometric analysis (reference value: 2.2%); format: functional
Hep 3B2 [18] = experiment: Induction of autophagic flux in human Hep3B cells harbouring mCherry-egfp-LC3 assessed as increase in yellow puncta at 25 nM incubated for 15 mins by laser scanning confocal microscopic analysis; format: functional, cell-based
Hep 3B2 [19] = experiment: Induction of autophagic flux in human Hep3B cells harbouring mCherry-egfp-LC3 assessed as increase in red puncta at 25 nM incubated for 15 mins by laser scanning confocal microscopic analysis; format: functional, cell-based
Hep 3B2 [20] = experiment: Induction of autophagic flux in human Hep3B cells assessed as rescue of p62 at 25 uM incubated for 48 hrs in presence of chloroquine by Western blot analysis; format: functional, cell-based
Hep 3B2 [21] = experiment: Induction of autophagic flux in human Hep3B cells assessed as rescue of LC3-I accumulation at 25 uM incubated for 48 hrs in presence of chloroquine by Western blot analysis; format: functional, cell-based
Huh-7 [22] = experiment: Induction of autophagic flux in human Huh-7 cells assessed as rescue of LC3-I accumulation at 25 uM incubated for 48 hrs in presence of chloroquine by Western blot analysis; format: functional, cell-based
Hep 3B2 [23] = experiment: Induction of apoptosis in human Hep3B cells assessed as necrotic cells at 25 nM incubated for 48 hrs by Annexin V-FITC/PI staining based flow cytometry method (reference value: 1.2%); format: functional
Hep 3B2 [24] = experiment: Induction of apoptosis in human Hep3B cells assessed as necrotic cells at 25 nM incubated for 48 hrs in presence of chloroquine by Annexin V-FITC/PI staining based flow cytometry method (reference value: 1.2%); format: functional
Hep 3B2 [25] = experiment: Induction of apoptosis in human Hep3B cells assessed as early apoptotic cells at 25 nM measured after 48 hrs by Annexin V-FITC/PI staining based flow cytometry method (reference value: 1.3%); format: functional
Huh-7 [26] = experiment: Induction of apoptosis in human Huh-7 cells assessed as viable cells at 25 nM incubated for 48 hrs by Annexin V-FITC/PI staining based flow cytometry method (reference value: 90.0%); format: functional; details: read-out: Activity
Huh-7 [27] = experiment: Induction of apoptosis in human Huh-7 cells assessed as upregulation of cleaved PARP level […] incubated for 48 hrs in presence of 4,6-dimorpholino-N-(4-nitrophenyl)-1,3,5-triazin-2-amine by immunoblot analysis; format: functional, cell-based
Huh-7 [28] = experiment: Induction of apoptosis in human Huh-7 cells assessed as reduction in bcl-2 level […] incubated for 48 hrs in presence of 4,6-dimorpholino-N-(4-nitrophenyl)-1,3,5-triazin-2-amine by immunoblot analysis; format: functional, cell-based
Huh-7 [29] = experiment: Induction of autophagy in human Huh-7 cells assessed as reduction in mTOR phosphorylation level incubated for 48 hrs by immunoblot method; format: functional, cell-based; details: dose 0-25 nM
Huh-7 [30] = experiment: Induction of autophagy in human Huh-7 cells assessed as reduction in autophagic vesicles at 25 nM incubated for 48 hrs in presence of 4,6-dimorpholino-N-(4-nitrophenyl)-1,3,5-triazin-2-amine by transmission electron microscopy based analysis; format: functional, cell-based
Hep 3B2 [31] = experiment: Induction of autophagy in human Hep3B cells assessed as restoration of ULK1 phosphorylation expression at 25 uM incubated for 48 hrs in presence of 4,6-dimorpholino-N-(4-nitrophenyl)-1,3,5-triazin-2-amine by immunoblot analysis; format: functional, cell-based
Huh-7 [32] = experiment: Induction of autophagy in human Huh-7 cells assessed as restoration of ULK1 phosphorylation expression at 25 uM incubated for 48 hrs in presence of 4,6-dimorpholino-N-(4-nitrophenyl)-1,3,5-triazin-2-amine by immunoblot analysis; format: functional, cell-based
[33] = Toxicity in mouse assessed as effect on serum ALT level at 5 mg/kg,ip administered every second day for 3 weeks by H and E staining based microscopic method; format: organism-based; details: in vivo, 504 h
[34] = Toxicity in mouse assessed as effect on serum CERA level at 5 mg/kg,ip administered every second day for 3 weeks by H and E staining based microscopic method; format: organism-based; details: in vivo, 504 h

Compound: CCN(CC)CCCC(C)Nc1ccnc2cc(Cl)ccc12 (centres undefined) [CHLOROQUINE]
- viability at 0.01 µM (Hep 3B2 [1]): 93.6%
- Activity (Hep 3B2 [2]): 0.4%
- Activity (Hep 3B2 [3]): Active
- Activity (Hep 3B2 [4]): Active
- Activity (Huh-7 [5]): Active
- Activity (Huh-7 [6]): Active

Compound: C[C@]12CC[C@H](O)C[C@H]1CC[C@@H]1[C@@H]2[C@H](O)C[C@]2(C)[C@@H](c3ccc(=O)oc3)CC[C@]12O [GAMABUFOTALIN]
- pIC50 (Hep 3B2 [7]): 7.57
- pIC50 (Huh-7 [8]): 7.64
- viability at 0.025 µM (Hep 3B2 [9]): 84.9%
- Activity (Hep 3B2 [10]): 7.8%
- Activity (Hep 3B2 [11]): 5.2%
- Activity (Huh-7 [12]): 24.4%
- Activity (Huh-7 [13]): 31.1%
- Activity (Hep 3B2 [14]): Active
- Activity (Hep 3B2 [15]): 0.6%
- Activity (Hep 3B2 [16]): 3.5%
- Activity (Huh-7 [17]): 6.6%
- Activity (Hep 3B2 [18]): Active
- Activity (Hep 3B2 [19]): Active
- Activity (Hep 3B2 [20]): Active
- Activity (Hep 3B2 [21]): Active
- Activity (Huh-7 [22]): Active
- Activity (Hep 3B2 [23]): 0.6%
- Activity (Hep 3B2 [24]): 0.8%
- Activity (Hep 3B2 [25]): 11.4%
- viability at 0.025 µM (Huh-7 [26]): 81.5%
- Activity (Huh-7 [27]): Active
- Activity (Huh-7 [28]): Active
- Activity (Huh-7 [29]): Dose-Dependent Effect
- Activity (Huh-7 [30]): Active
- Activity (Hep 3B2 [31]): Active
- Activity (Huh-7 [32]): Active
- Activity [33]: Non-Toxic
- Activity [34]: Non-Toxic
